This note sets out measurements from patent US4190666A, “Anti-inflammatory 4,5-diarly-2-(substituted-thio)imidazoles and their corresponding sulfoxides and sulfones” (E. I. Du Pont de Nemours and Company, priority 1978, dated 1980).

For one experiment, the system named is established adjuvant-induced arthritis in rats. In words: Established adjuvant-induced arthritis in rats (therapeutic, paw volume). The settings on record: 10 mg./kg., oral. Type of experiment: in vivo, Charles River Lewis male rats.
With `CCOc1ccc(-c2[nH]c(SC(F)(F)C(F)F)nc2-c2ccccc2)cc1` [Example 118], the “percent (%) reduction in paw volume measured at the indicated dose” value (shortened to “percent (%) reduction in paw volume”) was 32%. On to `CCCCSc1nc(-c2ccc(F)cc2)c(-c2ccc(F)cc2)[nH]1` [Example 108], for which the “percent (%) reduction in paw volume” value is 77%. For `Cc1ccc(-c2[nH]c(S(=O)(=O)C(F)(F)C(F)F)nc2-c2ccc(Cl)cc2)cc1` [Example 131], the “percent (%) reduction in paw volume” value is recorded as 36%.

The same experiment, now with this note: 25 mg./kg., oral.
Consider `CSc1nc(-c2ccccc2)c(-c2ccc(Cl)c(Cl)c2)[nH]1` [Example 112], for which the “percent (%) reduction in paw volume” value turned out to be 62%.

The same experiment, now with this note: 50 mg./kg., oral.
Turning to `CCOc1ccc(-c2[nH]c(S(C)(=O)=O)nc2-c2ccccc2)cc1` [Example 138], the “percent (%) reduction in paw volume” value amounted to 41%. With `CCCCS(=O)(=O)c1nc(-c2ccc(OC)cc2)c(-c2ccc(OC)cc2)[nH]1` [Example 129], the “percent (%) reduction in paw volume” value is reported as 71%. Turning to `CSc1nc(-c2ccccc2)c(-c2cccc(Cl)c2)[nH]1` [Example 114], the “percent (%) reduction in paw volume” value came to 45%.

Staying with this experiment, now noted: 75 mg./kg., oral.
Consider `CS(=O)(=O)c1nc(-c2ccccc2)c(-c2cccc(F)c2)[nH]1` [Example 147], for which the “percent (%) reduction in paw volume” value was 32%. With `C[S+]([O-])c1nc(-c2ccccc2)c(-c2cccc(Cl)c2)[nH]1` (stereo not drawn) [Example 139], the “percent (%) reduction in paw volume” value came to 77%.

Staying with this experiment, now noted: 100 mg./kg., oral.
Take `C[S+]([O-])c1nc(-c2ccccc2)c(-c2cccc(F)c2)[nH]1` (stereo not drawn) [Example 148]: the “percent (%) reduction in paw volume” value was found to be 67%.

The experiment is the same for the next values; noted with them: Rattus norvegicus, po, established arthritis, 7 daily doses, ED50% decrease from control paw volume, Tables I-III, read-out: Adjuvant Arthritis (ED50%).
One may read the ED50 as the midpoint of the dose-response relation. `O=S(=O)(c1nc(-c2ccc(Cl)cc2)c(-c2ccc(Cl)cc2)[nH]1)C(F)(F)C(F)F` [Example 69, 4,5-bis(4-chlorophenyl)-2-(1,1,2,2-tetrafluoroethylsulfonyl)imidazole]: the ED50 amounted to 0.2 mg/kg. On the same count and under the same terms, the value for `O=S(=O)(c1nc(-c2ccc(Cl)cc2)c(-c2ccc(F)cc2)[nH]1)C(F)(F)C(F)F` [Example 80] was 0.09 mg/kg; that for `CSc1nc(-c2ccc(C(F)(F)F)cc2)c(-c2ccccc2)[nH]1` [Example 34] was 20 mg/kg. On to `[O-][S+](CC(F)(F)F)c1nc(-c2ccc(Cl)cc2)c(-c2ccc(Cl)cc2)[nH]1` (stereo not drawn) [Example 8, 4,5-bis(4-chlorophenyl)-2-(2,2,2-trifluoroethylsulfinyl)imidazole], for which the ED50 stood at 3 mg/kg.

For the compound `COc1ccc(-c2nc(SC(F)(F)F)[nH]c2-c2ccc(OC)cc2)cc1` [Example 107], the ED50 was determined as 1.5 mg/kg.

For the compound `Fc1ccc(-c2nc(SC(F)F)[nH]c2-c2ccc(F)cc2)cc1` [Example 32], the ED50 is 0.42 mg/kg.

Regarding `C[S+]([O-])c1nc(-c2ccc(F)cc2)c(-c2ccc(F)cc2)[nH]1` (stereo not drawn) [Example 136], the ED50 was 4 mg/kg. The same measure, in the same setting: the value for `CSc1nc(-c2ccc(Cl)cc2)c(-c2ccc(C(F)(F)F)cc2)[nH]1` [Example 36] was 3.6 mg/kg; that for `FC(F)C(F)(F)Sc1nc(-c2ccccc2)c(-c2ccc(Cl)c(Cl)c2)[nH]1` [Example 119] was 3 mg/kg. Take `CSc1nc(-c2ccc(F)cc2)c(-c2ccc(F)cc2)[nH]1` [Example 28]: the ED50 was 3.5 mg/kg. On to `CCS(=O)(=O)c1nc(-c2ccc(OC)cc2)c(-c2ccc(OC)cc2)[nH]1` [Example 14, 2-Ethylsulfonyl-4,5-bis(4-methoxyphenyl)imidazole], for which the median effective dose (ED50) came out at 5.2 mg/kg. As to `COc1ccc(-c2nc(S(=O)(=O)C(F)(F)C(F)I)[nH]c2-c2ccc(OC)cc2)cc1` (stereo not drawn) [Example 128], the ED50 was 3 mg/kg. For the compound `COc1ccc(-c2nc(S(=O)(=O)CS(C)(=O)=O)[nH]c2-c2ccc(OC)cc2)cc1` [Example 99], the ED50 was found to be 54 mg/kg. As to `COc1ccc(-c2nc(S(=O)(=O)C(C)C)[nH]c2-c2ccc(OC)cc2)cc1` [Example 63], the ED50 is 30 mg/kg. Turning to `CS(=O)(=O)c1nc(-c2ccc(Cl)cc2)c(-c2ccc(F)cc2)[nH]1` [Example 79], the ED50 is 2.8 mg/kg. `C[S+]([O-])c1nc(-c2ccc(Cl)cc2)c(-c2ccc(Cl)cc2)[nH]1` (stereo not drawn) [Example 59]: the 50% effective dose (ED50) was 2.3 mg/kg.

Consider `[O-][S+](c1nc(-c2ccccc2)c(-c2ccccc2)[nH]1)C(F)(F)C(F)F` (stereo not drawn) [Example 66], for which the ED50 was 0.18 mg/kg. `CC[S+]([O-])c1nc(-c2ccc(OC)cc2)c(-c2ccc(OC)cc2)[nH]1` (stereo not drawn) [Example 13, 2-Ethylsulfinyl-4,5-bis(4-methoxyphenyl)imidazole]: the ED50 worked out at 10 mg/kg. Still for that read-out and setting: the value for `COc1ccc(-c2nc(S(C)(=O)=O)[nH]c2-c2ccc(OC)cc2)cc1` [Example 57] was 6.4 mg/kg. For `[O-][S+](c1nc(-c2ccc(Cl)cc2)c(-c2ccc(Cl)cc2)[nH]1)C(F)(F)C(F)F` (stereo not drawn) [Example 68], the ED50 is 0.2 mg/kg. Turning to `O=S(=O)(c1nc(-c2ccc(C(F)(F)F)cc2)c(-c2ccccc2)[nH]1)C(F)(F)C(F)F` [Example 89], the ED50 came out at 2.4 mg/kg. As to `COc1ccc(-c2nc(SC(F)(F)C(F)F)[nH]c2-c2ccccc2)cc1` [Example 44], the ED50 stood at 20 mg/kg. Turning to `Fc1ccc(-c2[nH]c(SC(F)(F)C(F)F)nc2-c2ccc(Cl)cc2)cc1` [Example 42], the ED50 came to 0.18 mg/kg. Consider `COc1ccc(-c2nc(SC(F)(F)C(F)F)[nH]c2-c2ccc(OC)cc2)cc1` [Example 38], for which the ED50 turned out to be 4.2 mg/kg. For the compound `FC(F)C(F)(F)Sc1nc(-c2ccc3c(c2)OCO3)c(-c2ccc3c(c2)OCO3)[nH]1` [Example 46], the ED50 turned out to be 10 mg/kg. As for `COc1ccc(-c2nc(SC(F)F)[nH]c2-c2ccc(OC)cc2)cc1` [Example 29], the median effective dose (ED50) was found to be 1.8 mg/kg. The same measure, in the same setting: the value for `O=S(=O)(c1nc(-c2ccccc2)c(-c2ccccc2)[nH]1)C(F)(F)F` [Example 103, 4,5-diphenyl-2-trifluoromethylsulfonylimidazole] was 0.03 mg/kg; that for `FC(F)Sc1nc(-c2ccccc2)c(-c2ccccc2)[nH]1` [Example 30] was 21 mg/kg; that for `C=CC[S+]([O-])c1nc(-c2ccc(OC)cc2)c(-c2ccc(OC)cc2)[nH]1` (stereo not drawn) [Example 54] was 11 mg/kg.

Consider `Fc1ccc(-c2nc(SC(F)(F)C(F)F)[nH]c2-c2ccc(F)cc2)cc1` [Example 40], for which the 50% effective dose (ED50) is 0.075 mg/kg. Still for that read-out and setting: the value for `FC(F)C(F)(F)Sc1nc(-c2ccc(C(F)(F)F)cc2)c(-c2ccccc2)[nH]1` [Example 47] was 4.5 mg/kg; that for `Cc1ccc(-c2nc(S(=O)(=O)C(F)(F)C(F)F)[nH]c2-c2ccccc2)cc1` [Example 96] was 0.6 mg/kg. On to `O=S(=O)(c1nc(-c2ccc3c(c2)OCO3)c(-c2ccc3c(c2)OCO3)[nH]1)C(F)(F)C(F)F` [Example 97], for which the ED50 is 1 mg/kg.

Regarding `Cc1ccc(-c2nc(S(=O)(=O)C(F)(F)C(F)F)[nH]c2-c2ccc(C)cc2)cc1` [Example 81], the ED50 was determined as 0.35 mg/kg. On the same count and under the same terms, the value for `Fc1ccc(-c2nc(SC(F)(F)C(F)F)[nH]c2-c2ccccc2)cc1` [Example 49] was 0.2 mg/kg.

`O=S(=O)(CC(F)(F)F)c1nc(-c2ccc(F)cc2)c(-c2ccc(F)cc2)[nH]1` [Example 70]: the ED50 was found to be 3.5 mg/kg. Same read-out and setting: the value for `O=S(=O)(c1nc(-c2ccc(F)cc2)c(-c2ccc(F)cc2)[nH]1)C(F)F` [Example 78] was 0.1 mg/kg. Take `Fc1ccc(-c2nc(SC(F)(F)C(F)F)[nH]c2-c2ccc(C(F)(F)F)cc2)cc1` [Example 48]: the 50% effective dose (ED50) came out at 1.5 mg/kg.

Take `CN(C)c1ccc(-c2nc(SC(F)(F)C(F)F)[nH]c2-c2ccccc2)cc1` [Example 53]: the ED50 is 2.5 mg/kg.

Consider `CS(=O)(=O)c1nc(-c2ccc(F)cc2)c(-c2ccc(F)cc2)[nH]1` [Example 72], for which the ED50 worked out at 4.5 mg/kg.

As to `CSc1nc(-c2ccc(F)cc2)c(-c2ccc(C(F)(F)F)cc2)[nH]1` [Example 35], the ED50 amounted to 17 mg/kg. Still for that read-out and setting: the value for `FC(F)C(F)(F)Sc1nc(-c2ccccc2)c(-c2cccc(Cl)c2)[nH]1` [Example 121] was 0.6 mg/kg. Regarding `CCSc1nc(-c2ccc(OC)cc2)c(-c2ccc(OC)cc2)[nH]1` [Example 10, 2-Ethylthio-4,5-bis(4-methoxyphenyl)imidazole], the ED50 turned out to be 4.7 mg/kg. Take `COc1ccc(-c2nc(S(=O)(=O)CC(C)=O)[nH]c2-c2ccc(OC)cc2)cc1` [Example 100]: the ED50 was 18 mg/kg.

Take `O=S(=O)(c1nc(-c2ccccc2Cl)c(-c2ccccc2Cl)[nH]1)C(F)(F)C(F)F` [Example 91]: the ED50 was determined as 0.8 mg/kg.

On to `O=S(=O)(CC(F)(F)F)c1nc(-c2ccc(Cl)cc2)c(-c2ccc(Cl)cc2)[nH]1` [Example 9, 4,5-bis(4-Chlorophenyl)-2-(2,2,2-trifluoroethylsulfonyl)imidazole], for which the ED50 amounted to 4.5 mg/kg. As for `CS(=O)(=O)c1nc(-c2ccc(Cl)cc2)c(-c2ccccc2)[nH]1` [Example 85], the ED50 was 30 mg/kg. Still for that read-out and setting: the value for `FC(F)Sc1nc(-c2ccc(Cl)cc2)c(-c2ccc(Cl)cc2)[nH]1` [Example 31] was 0.35 mg/kg; that for `CSc1nc(-c2ccc3c(c2)OCO3)c(-c2ccc3c(c2)OCO3)[nH]1` [Example 37] was 20 mg/kg; that for `FC(F)C(F)(F)Sc1nc(-c2ccc(Cl)cc2)c(-c2ccccc2)[nH]1` [Example 45] was 0.3 mg/kg. On to `Cc1ccc(-c2nc(SC(F)(F)C(F)F)[nH]c2-c2ccc(C)cc2)cc1` [Example 43], for which the ED50 was found to be 18 mg/kg.

In the case of `O=S(=O)(c1nc(-c2ccc(F)cc2)c(-c2ccc(F)cc2)[nH]1)C(F)(F)F` [Example 104, 4,5-bis(p-fluorophenyl)-2-trifluoromethylsulfonylimidazole], the ED50 was 0.015 mg/kg. For the compound `O=S(=O)(c1nc(-c2cccc(Cl)c2)c(-c2cccc(Cl)c2)[nH]1)C(F)(F)C(F)F` [Example 93], the ED50 was determined as 0.16 mg/kg.

The experiment is the same for the next values; noted with them: established arthritis, oral, 7 daily doses; ED50% decrease from control paw volume; Tables I-III.
For the compound `COc1ccc(-c2nc(SC(F)(F)C(F)I)[nH]c2-c2ccc(OC)cc2)cc1` (stereo not drawn) [Example 116], the “Adjuvant Arthritis (ED50%)” value was found to be 30 mg/kg. As for `COc1ccc(-c2nc(SC(F)(F)C(F)Br)[nH]c2-c2ccc(OC)cc2)cc1` (stereo not drawn) [Example 51, 2-(2-bromo-1,1,2-trifluoroethylthio)-4,5-bis(4-methoxyphenyl)imidazole], the “Adjuvant Arthritis (ED50%)” value turned out to be 10 mg/kg.

The same experiment, now with this note: established arthritis, oral, 7 daily doses; ED50% decrease from control paw volume; Tables I-III; listed as 122.
For the compound `CN(C)c1ccc(-c2nc(SC(F)(F)C(F)F)[nH]c2-c2ccccc2)cc1` [Example 53], the “Adjuvant Arthritis (ED50%)” value was 4.0 mg/kg.
